Laboratory results published in patent publication US9399032B2, “Methods and compositions for treating degenerative and ischemic disorders” (The General Hospital Corporation, priority 2009, dated 2016).
Where a name gives a salt, the structure may show the parent alone.

Tested on: MCH58 fibroblasts
Assay: Mass spectrometry-based metabolite profiling
Assay type: cell-based, human
Description: Metabolite profiling was performed on MCH58 fibroblasts following treatment with 50 μM meclizine or vehicle control for six hours, using methods similar to those previously described, see […] et al., Mol Syst Biol 4:214 (2008). […] For assessment of media metabolites, 500 μl of spent media or baseline media (prior to addition to cells) were sampled from the culture dish and immediately added to 500 μl of pre-cooled (-80° C.) methanol extraction solution (80% methanol, 20% H2O) to allow for rapid quenching of metabolism and extraction of metabolites. After 20 minutes at 4° C., samples were centrifuged at 14,000 g for 10 minutes. 50 μl of the supernatant was collected, re-diluted 1:20 with methanol extraction solution, and 100 μl of the final solution evaporated under nitrogen. Samples were reconstituted in 60 μl of HPLC-grade water and metabolite levels determined, as described below. For assessment of intracellular metabolites, media was aspirated from the above tissue culture plates and cells gently washed with 4 mL of PBS, to ensure complete removal of residual media metabolites. The PBS was removed and cellular metabolism quenched with immediate addition of 1 mL of pre-cooled (-80° C.) methanol extraction solution (80% methanol, 20% H2O). Cells were scraped, collected in extraction solution, vortexed and the samples centrifuged as described above for preparation of media samples. 100 μl of the supernatant was collected, re-diluted 1:1 with methanol extraction solution, and 100 μl of the final solution evaporated under nitrogen. Samples were reconstituted in 60 μl of HPLC-grade water and metabolites assessed. Six biological replicates were assessed for each group. Analyses of endogenous metabolites were performed using a liquid chromatography tandem mass spectrometry (LC-MS) system composed of a 4000 QTRAP triple quadrupole mass spectrometer (Applied Biosystems/SCIEX) coupled to three Agilent 1100 binary HPLC pumps (Agilent Technologies) and an HTS PAL autosampler (LEAP Technologies) equipped with three injection ports and a column selector valve. Three multiplexed chromatographic methods were configured for the analyses of each sample: LC method 1 used a Luna Phenyl-Hexyl column (Phenomenex) eluted with a linear gradient of water/acetonitrile/acetic acid (initial proportions 100/0/0.001, final proportions 10/90/0.001); […] LC method 3 used a Synergi Polar-RP column (Phenomenex) with reversed phase, gradient elution using 5% acetonitrile/5 mM ammonium acetate (mobile phase A) and 95% acetonitrile/5 mM ammonium acetate (mobile phase B). MS data were acquired using multiple reaction monitoring (MRM) in both the positive (LC method 1) and negative (LC methods 2 and 3) ion modes. During the development of this method, authentic reference compounds were used to determine LC retention times and to tune MRM transitions. Metabolite quantification was performed by integrating peak areas for specific MRM transitions using MultiQuant software (version 1.1; Applied Biosystems/SCIEX) and all integrated peaks were manually reviewed for quality. Extraction and quantification procedures were optimized prior to assessment of samples in this study to ensure measured intracellular and media metabolites were within the linear range of detection. Confirmation of the phosphoethanolamine peak was performed using an exogenous phosphoethanolamine standard (Sigma P0503).

[1] = intracellular, 50 μM, 6 h, over DMSO

## Cc1cccc(CN2CCN(C(c3ccccc3)c3ccc(Cl)cc3)CC2)c1 (racemic) [Meclizine, meclizine hydrochloride]
[1]
  Fold Change P1_M0003_2′-deoxycytidine: 1.13
  Fold Change P1_M0007_Acetylcholine_p2_Met-146: 1.06
  Fold Change P1_M0008_Alanine: 1.40
  Fold Change P1_M0009_Allantoin: 0.91
  Fold Change P1_M0012_Arginine: 1.01
  Fold Change P1_M0013_Argininosuccinate: 1.08
  Fold Change P1_M0014_Asparagine: 2.43
  Fold Change P1_M0015_Aspartate: 1.25
  Fold Change P1_M0016_Betaine: 1.08
  Fold Change P1_M0018_Carnosine: 1.00
  Fold Change P1_M0019_Choline: 0.90
  Fold Change P1_M0022_Creatine: 1.47
  Fold Change P1_M0023_Creatinine: 1.03
  Fold Change P1_M0026_Cysteine: 1.38
  Fold Change P1_M0027_Cytidine: 1.28
  Fold Change P1_M0030_DimethylGlycine: 0.98
  Fold Change P1_M0034_GlutamicAcid_p2: 1.16
  Fold Change P1_M0035_Glutamine: 1.05
  Fold Change P1_M0038_Histidine: 1.07
  Fold Change P1_M0039_Homocysteine: 0.95
  Fold Change P1_M0040_Homoserine: 1.14
  Fold Change P1_M0041_Hydroxyproline: 1.17
  Fold Change P1_M0042/M0044_Ile/Leu: 0.91
  Fold Change P1_M0045_Lysine: 1.08
  Fold Change P1_M0046_Metanephrine_p2: 0.87
  Fold Change P1_M0047_Methionine: 1.06
  Fold Change P1_M0050_Niacinamide: 1.08
  Fold Change P1_M0052_Ornithine: 1.01
  Fold Change P1_M0053_Phenylalanine: 1.09
  Fold Change P1_M0054_Phosphoethanolamine: 38.21
  Fold Change P1_M0055_Proline: 1.28
  Fold Change P1_M0056_Pyridoxine: 1.15
  Fold Change P1_M0058_Serine: 1.11
  Fold Change P1_M0062_Taurine: 1.59
  Fold Change P1_M0063_Threonine: 1.14
  Fold Change P1_M0066_Tryptophan: 1.13
  Fold Change P1_M0067_Tyrosine: 1.18
  Fold Change P1_M0068/M0037_Valine/GuanidinoaceticAcid: 0.94
  Fold Change P1_M0070_Xanthosine: 1.21
  Fold Change P1_M0142_Thymidine: 0.97
  Fold Change P1_M0200_L-NMMA: 0.59
  Fold Change P1_M0201/M0202_ADMA/SDMA: 0.99
  Fold Change P1_M0204_Glycerol: 0.94
  Fold Change P1_NM001-M68_Valine-d8: 1.01
  Fold Change P3_M0077_Acetoacetate: 1.07
  Fold Change P3_M0081_ADP_p2: 1.43
  Fold Change P3_M0082_AMP: 1.31
  Fold Change P3_M0100_FolicAcid: 0.63
  Fold Change P3_M0102/M0103/M0196_F16DiP/F26DiP/G16DiP_D79_p2: 1.32
  Fold Change P3_M0104-M0107_F1P/F6P/G1P/G6P_D97: 0.97
  Fold Change P3_M0109-M0110_Glucose/Galactose: 0.94
  Fold Change P3_M0111_GlutathioneOxidized: 1.20
  Fold Change P3_M0112_GlutathioneReduced: 1.74
  Fold Change P3_M0113_Glyceraldehyde: 1.00
  Fold Change P3_M0114_Glycerol-3-P: 1.21
  Fold Change P3_M0121_Hypoxanthine: 1.17
  Fold Change P3_M0126_LacticAcid: 0.99
  Fold Change P3_M0127_Lactose: 0.42
  Fold Change P3_M0129_NAD: 1.11
  Fold Change P3_M0130_NADP: 1.24
  Fold Change P3_M0139_Sorbitol: 0.92
  Fold Change P3_M0140_Sucrose: 1.18
  Fold Change P3_M0145/M0146_UDP-Glucose/UDP-Galactose_p2: 1.33
  Fold Change P3_M0147_UDP-GlucuronicAcid: 1.45
  Fold Change P3_M0149_Uracil: 0.90
  Fold Change P3_M0150_Uridine: 0.88
  Fold Change P3_M0152_Xanthine: 0.85
  Fold Change P3_M0154_Methylmalonate: 0.86
  Fold Change P3_M0164/M0175_FumaricAcid/MaleicAcid: 1.07
  Fold Change P3_M0195_3-PhosphoglycericAcid: 1.45
  Fold Change P3_NM002-M109_Glucose-13C6-d7: 1.02
  Fold Change P3_NM003-M161_CitricAcid-d4: 0.97
  Fold Change P4_CAP193_Met-165: 0.90
  Fold Change P4_M0083_ATP_D159: 1.27
  Fold Change P4_M0088_CMP: 1.27
  Fold Change P4_M0089_CTP: 1.32
  Fold Change P4_M0090_Cystathionine: 1.53
  Fold Change P4_M0091_DCDP: 1.09
  Fold Change P4_M0092_DCMP: 1.17
  Fold Change P4_M0093_DCTP: 1.02
  Fold Change P4_M0097_DUMP: 0.88
  Fold Change P4_M0100_FolicAcid: 0.84
  Fold Change P4_M0102/M0103/M0196_F16DiP/F26DiP/G16DiP_D79_p1: 1.14
  Fold Change P4_M0102/M0103/M0196_F16DiP/F26DiP/G16DiP_D241: 1.07
  Fold Change P4_M0108_GDP_p1: 1.38
  Fold Change P4_M0116_GTP: 1.24
  Fold Change P4_M0121_Hypoxanthine: 0.76
  Fold Change P4_M0123_Inosine_p2: 1.18
  Fold Change P4_M0126_LacticAcid: 0.96
  Fold Change P4_M0137/M0138_Ribose-5-P/Ribulose-5-P_D97: 1.07
  Fold Change P4_M0140_Sucrose: 1.10
  Fold Change P4_M0144_UDP: 1.21
  Fold Change P4_M0148_UMP_p1: 0.83
  Fold Change P4_M0151_UTP: 1.09
  Fold Change P4_M0157/M0156_Alpha-Keto-Glutarate/AdipicAcid: 1.06
  Fold Change P4_M0158_AscorbicAcid: 0.96
  Fold Change P4_M0159_CDP: 1.52
  Fold Change P4_M0161/M0172_CitricAcid/IsocitricAcid: 0.66
  Fold Change P4_M0162_Citrulline: 0.87
  Fold Change P4_M0163_DHAP: 0.98
  Fold Change P4_M0164/M0175_FumaricAcid/MaleicAcid: 0.94
  Fold Change P4_M0165_GeranylPyrophosphate: 1.18
  Fold Change P4_M0166_Glucuronate: 0.77
  Fold Change P4_M0167_Glycerate-2-P_p1_Met-185: 1.09
  Fold Change P4_M0168_GlycochenodeoxycholicAcid: 0.83
  Fold Change P4_M0169_GlycocholicAcid: 0.68
  Fold Change P4_M0170_HippuricAcid: 0.86
  Fold Change P4_M0173_Kynurenine: 0.96
  Fold Change P4_M0176_MalicAcid: 0.96
  Fold Change P4_M0180_OH-PhenylPyruvate: 0.86
  Fold Change P4_M0183_Oxaloacetate: 0.92
  Fold Change P4_M0184_PantothenicAcid: 1.29
  Fold Change P4_M0185_Pyridoxal-5-phosphate_p1: 1.01
  Fold Change P4_M0187_SuccinicAcid: 0.83
  Fold Change P4_M0188_TaurochenodeoxycholicAcid: 0.76
  Fold Change P4_M0190_UricAcid: 0.87
  Fold Change P4_M0191_Xanthosine-5′-monophosphate: 1.75
  Fold Change P4_M0198_AconiticAcid(CAP203)_D129: 0.55
  Fold Change P4_M0205_PhosphoTyrosine: 1.23
  Fold Change P4_M0206_Acetyl-CoA_P404: 1.22
  Fold Change P4_M0207_Malonyl-CoA_p1: 1.16
  Fold Change P4_M0210_Pyruvate: 1.08
  Fold Change P4_NM002-M109_Glucose-13C6-d7: 1.15
  Fold Change P4_NM003-M161_CitricAcid-d4_p1: 1.02
Six hours after treatment
  increase of intracellular phosphoethanolamine: ~35 fold
